Reference: patent US20150071918A1, “PEPTIDES FOR THE TREATMENT OF CANCER” (H. LEE MOFFITT CANCER CENTER AND RESEARCH INSTITUTE, INC., priority 2012, published 2015)
Where a SMILES comes first, the peptide text is derived from it. [ ]: non-standard residue; d: D form. The star is where a group is joined. Biotin = O=C1N[C@H]2[C@H](CS[C@H]2CCCCC(=O)*)N1

Tests used:
[1] = test system: H929 myeloma cells; type: cell-based, human; conditions: H929 cells
Description: H929 cells were treated for 24 hours with varying concentrations of peptide. Cell death was measured by Topro-3 staining and FACS analysis. The IC50 values were obtained from linear regression analysis and an average value was obtained from 3 independent experiments.
Table 4 legend: Structure activity relationship in H929 myeloma cells of cyclic INTEGRIN INTERACTION INHIBITORS derivatives. The minimal bioactive core sequence of INTEGRIN INTERACTION INHIBITORS WSVVM (SEQ ID NO:33) was cyclized using 2 novel reduced amide bond beta turn promoters and KLKLK (SEQ ID NO:34) as the non-recognition sequence. H929 cells were treated with varying concentrations of the indicated peptide for 24 h. Cell viability was determined using Topro-3 staining and FACS analysis after drug treatment. IC50 values were generated from linear regressions generated from the dose response curves (n=mean of 3 independent experiments).
A colony forming assay was used to compare induced cell death in H929 multiple myeloma cells. Cells were treated with integrin interaction inhibitors, shown in FIG. 5 and Table 4, and cell death was measured following 24 hour peptide treatment by TOPRO-3 staining and FACS analysis.

[2] = biological target: T1, full length recombinant human CD44 (Homo sapiens, UniProt P16070); assay: ELISA based binding assay, biotin-HYD1 on NeutrAvidin coated wells; conditions: biotin as control
T1 construct: purchased Abnova
T1 sequence (P16070 21-699 isoform P16070-4 limits assumed): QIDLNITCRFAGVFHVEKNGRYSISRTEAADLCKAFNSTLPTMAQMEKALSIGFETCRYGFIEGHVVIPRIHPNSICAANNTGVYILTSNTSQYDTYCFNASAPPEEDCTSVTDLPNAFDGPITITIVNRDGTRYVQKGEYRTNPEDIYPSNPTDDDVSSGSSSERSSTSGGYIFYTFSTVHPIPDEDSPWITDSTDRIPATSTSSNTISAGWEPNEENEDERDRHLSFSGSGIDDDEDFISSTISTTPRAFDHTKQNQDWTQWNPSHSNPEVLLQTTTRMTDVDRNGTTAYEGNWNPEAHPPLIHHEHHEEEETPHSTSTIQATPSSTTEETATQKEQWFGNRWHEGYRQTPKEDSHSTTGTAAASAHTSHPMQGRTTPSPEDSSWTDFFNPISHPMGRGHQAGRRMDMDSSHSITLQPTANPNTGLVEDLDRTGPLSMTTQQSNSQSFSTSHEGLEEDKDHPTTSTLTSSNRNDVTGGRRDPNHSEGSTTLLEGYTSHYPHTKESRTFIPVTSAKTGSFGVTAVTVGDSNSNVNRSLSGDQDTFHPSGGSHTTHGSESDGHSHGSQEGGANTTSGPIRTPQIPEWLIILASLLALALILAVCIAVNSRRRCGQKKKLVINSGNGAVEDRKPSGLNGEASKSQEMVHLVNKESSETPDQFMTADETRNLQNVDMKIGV
Source text: FIG. 41. […] A primary CD44 antibody and HRP conjugated secondary antibody and chemiluminescence detection was used to quantify rCD44 binding to immobilized biotin-HYD1.
FIG. 51. ELISA based binding assay confirms that biotin-HYD1 binds to full length recombinant human CD44 in a concentration dependent manner. Biotin was bound to NeutrAvidin coated wells to control for non-specific binding.
The inventors used biotin-HYD1 as bait to pulldown binding complexes contained within membrane extracts of H929 MM cells. The pull down assay was directly coupled with an unbiased Mass-Spec analysis to identify HYD1 binding partners. […] NeutrAvidin beads were used to reduce non-specific binding. […] The inventors next determined whether α4 integrin could be detected by western blot analysis. […] To determine whether […] was indeed a direct binding partner of […] the inventors used recombinant CD44 and an ELISA as a readout of binding. […]
The inventors performed a total membrane binding assay with biotin conjugated HYD1 and NeutrAvidin beads on NCI-H929 and U266 MM cells. Samples were then loaded on an SDS-PAGE gel, trypsin digested, and analyzed by Liquid Chromatography-Mass Spectrometry/Mass Spectrometry (LC-MS/MS). […] For more quantitative binding affinity analysis we produced the human globular ectodomain of CD44 comprising of amino acids 20-178. […]

[3] = test system: CD44 and α4 integrin in membrane extracts; assay: Pull-down of membrane extract with biotin-conjugated peptide on NeutrAvidin beads, western blot / LC-MS/MS; type: binding; conditions: H929 cells, 30 μg membrane extract, western blot pan-CD44 antibody
Description: FIG. 39. […] Thirty micrograms of membrane extract was incubated with either biotin or biotin-HYD1 bound NeutrAvidin beads. The first lane is 30 μg of membrane extract only. CD44 was detected by western blot analysis using a pan-CD44 antibody.
FIGS. 40A-40B. […] Biotin-HYD1 or biotin was immobilized to NeutraAvidin beads prior to incubation with 150 μg of membrane extract. The blot was initially probed for α4 integrin and subsequently stripped and re-probed with CD44 antibody.
FIG. 65. […] Total cell membranes were isolated from U937 or HL-60 cells. Membrane lysate (150 μg) was incubated with 500 μg of biotin or biotin-MTI-101 bound to NeutrAvidin beads. […]
The inventors used biotin-HYD1 as bait to pulldown binding complexes contained within membrane extracts of H929 MM cells. […] The inventors next determined whether α4 integrin could be detected by western blot analysis. […] To determine whether […] was indeed a direct binding partner of […] the inventors used recombinant CD44 and an ELISA as a readout of binding. […]
We performed a total membrane binding assay with biotin conjugated HYD1 and NeutrAvidin beads on NCI-H929 and U266 MM cells. Samples were then loaded on an SDS-PAGE gel and analyzed by LC-MS/MS. The adhesion receptor CD44 was determined to be among the adhesion receptors that had the most peptide match hits and was confirmed as a valid hit via Western Blot analysis. […]

IC50 of biotinylated peptide relative to HYD1 [1]: slightly decreased | binding to recombinant CD44 in ELISA [2]: binds recombinant CD44 in a direct ELISA
SMILES: CC[C@@H](C)[C@@H](NC(=O)[C@@H](CCCCN)NC(=O)CCCC[C@@H]1SC[C@@H]2NC(=O)N[C@@H]21)C(=O)N[C@H](CCCCN)C(=O)N[C@H](CCSC)C(=O)N[C@@H](C(=O)N[C@@H](C(=O)N[C@H](CO)C(=O)N[C@H](Cc1c[nH]c2ccccc12)C(=O)N[C@H](CCCCN)C(=O)NCC(=O)O)[C@H](C)CC)C(C)C [biotin-HYD1] (Biotin-[dK][dI][dK][dM][dV][dI][dS][dW][dK]G-OH; N-terminus and C-terminus assumed)
binding to recombinant CD44 in ELISA ([2]; listed as biotin conjugated HYD1): CD44 bound to biotin conjugated HYD1 in a concentration dependent manner | pull-down of binding partners from H929 membrane extract [3]: interacts with CD44 in H929 cells
